# Data reported in patent US20230089247A1, “NOVEL COMPOUNDS SUITABLE FOR THE TREATMENT OF DYSLIPIDEMIA” (ZYDUS LIFESCIENCES LIMITED, priority 2019, published 2023).
# How the values were obtained:
# [1] = system: High Fat Diet C57 Mice; assay: LDL-C lowering activity in high fat diet C57 mice; type: in vivo; conditions: Mus musculus, po, 168 h; C57 mice on high fat diet; 30 mg/Kg orally once a day, 7 days treatment, blood on day 7; read-out: % Change Vs Vehicle Control in LDLc
# Method: LDL-C Lowering Activity—in High Fat Diet C57 Mice
# The in-vivo LDL-c lowering for test compound was tested in C57 mice which were kept on high fat diet for 4 weeks and the blood was collected by retro-orbital sinus puncture method under light ether anesthesia on day 0 (pretreatment). Animal are grouped based on LDL-c levels, after that 7 days treatment with vehicle or test compound orally at a dose of 30 mpk dose once a day was given. On completion of treatment on day 7 of the treatment the blood was collected for LDL-c and TC levels measurement.
# [2] = target: PCSK9 (Homo sapiens, UniProt Q8NBP7); assay: BODIPY-LDL uptake assay in HepG2 cells; type: cell-based; conditions: 5 μg/ml PCSK9, BODIPY-LDL
# Outline: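 Compounds pre-incubated 60 min with 5 μg/ml PCSK9 (0.2% DMSO), then added to HepG2 cells for 16 h; 1 μg/ml BODIPY-LDL added in serum-free medium for 5 h. Fluorescence (Ex 485/Em 520 nm) normalized to protein; PCSK9-only wells = 0%, no-PCSK9 wells = 100% uptake, giving percent increase in LDL uptake.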
# PCSK9, sequence (Q8NBP7 153-692): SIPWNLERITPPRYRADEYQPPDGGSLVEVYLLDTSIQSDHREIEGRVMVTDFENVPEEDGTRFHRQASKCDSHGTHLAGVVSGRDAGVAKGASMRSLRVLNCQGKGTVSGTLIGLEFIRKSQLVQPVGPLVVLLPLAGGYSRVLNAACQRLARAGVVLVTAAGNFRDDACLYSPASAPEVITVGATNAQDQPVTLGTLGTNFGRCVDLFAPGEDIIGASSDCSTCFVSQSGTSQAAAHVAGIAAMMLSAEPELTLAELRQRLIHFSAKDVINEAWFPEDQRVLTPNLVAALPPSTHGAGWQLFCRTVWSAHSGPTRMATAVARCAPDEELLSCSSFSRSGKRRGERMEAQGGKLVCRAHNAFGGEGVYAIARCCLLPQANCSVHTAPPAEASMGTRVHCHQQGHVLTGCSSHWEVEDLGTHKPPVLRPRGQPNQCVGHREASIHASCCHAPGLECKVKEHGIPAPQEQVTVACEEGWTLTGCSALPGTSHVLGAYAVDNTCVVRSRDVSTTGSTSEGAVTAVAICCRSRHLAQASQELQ
Structure (SMILES),change in vivo at 30 mg/kg [1],% increase in LDL Uptake ([2]; 1 μM test compound),% increase in LDL Uptake ([2]; 10 μM test compound),% increase in LDL Uptake ([2]; 30 μM test compound)
"COC1(c2ccc(C(=O)N3CC4CN(c5ccc(C(F)(F)F)cc5)CC4C3)cc2)COC1 (stereo not drawn) [Example 57, (4-(3-methoxyoxetan-3-yl)phenyl)(5-(4-(trifluoromethyl)phenyl)hexahydropyrrolo[3,4-c]pyrrol-2(1H)-yl)methanone]",-43 ± 9%,6%,32%,53%
"CCOC1(c2ccc(C(=O)N3CC4CN(c5ccc(C(F)(F)F)cc5)CC4C3)cc2)COC1 (stereo not drawn) [Example 58, (4-(3-ethoxyoxetan-3-yl)phenyl)(5-(4-(trifluoromethyl)phenyl)hexahydropyrrolo[3,4-c]pyrrol-2 (1H)-yl)methanone]",-44 ± 3%,25%,21%,43%
"O=C(c1cccc(C2(O)COC2)c1)N1CCC(c2ccc(C(F)F)cc2)CC1 [Example 66, (4-(4-(difluoromethyl)phenyl)piperidin-1-yl)(3-(3-hydroxyoxetan-3-yl)phenyl)methanone]",-24 ± 7.1%,0%,24%,159%
"[2H]C([2H])([2H])OC1(c2ccc(C(=O)N3CCC(c4ccc(C(F)(F)F)cc4)CC3)cc2)COC1 [Example 76, (4-(3-(methoxy-d3)oxetan-3-yl)phenyl)(4-(4-(trifluoromethyl)phenyl)piperidin-1-yl)methanone]",-28 ± 7%,10%,98%,108%
"O=C(c1ccc(C2(O)COC2)cc1)N1CCC(O)(c2ccc(C(F)(F)F)cc2)CC1 [Example 86, (4-hydroxy-4-(4-(trifluoromethyl)phenyl)piperidin-1-yl)(4-(3-hydroxyoxetan-3-yl)phenyl)methanone]",-28 ± 4%,2%,33%,55%
"O=C(c1ccc(C2(O)COC2)cc1)N1CC=C(c2ccc(C(F)(F)F)cc2)CC1 [Example 87, (4-(3-hydroxyoxetan-3-yl)phenyl)(4-(4-(trifluoromethyl)phenyl)-5,6-dihydropyridin-1(2H)-yl)methanone]",-36 ± 5%,77%,115%,94%
"COC1(c2ccc(C(=O)N3Cc4cn(-c5ccc(C(F)(F)F)cc5)nc4C3)cc2)COC1 [Example 90, (4-(3-methoxyoxetan-3-yl)phenyl)(2-(4-(trifluoromethyl)phenyl)-2,6-dihydropyrrolo[3,4-c]pyrazol-5(4H)-yl)methanone]",-5.5 ± 4.5%,3%,39%,74%
"O=C(c1ccc(C2(O)COC2)cc1)N1CC2=C(C1)CN(c1ccc(C(F)(F)F)cc1)C2 [Example 95, (4-(3-hydroxyoxetan-3-yl)phenyl)(5-(4-(trifluoromethyl)phenyl)-3,4,5,6-tetrahydropyrrolo[3,4-c]pyrrol-2(1H)-yl)methanone]",-16 ± 9%,19%,127%,226%
"O=C(c1ccc(C2(O)COC2)cc1)N1CC2CC(O)(c3ccc(C(F)(F)F)cc3)CC2C1 (stereo not drawn) [Example 105, (5-hydroxy-5-(4-(trifluoromethyl)phenyl)hexahydrocyclopenta[c]pyrrol-2(1H)-yl)(4-(3-hydroxyoxetan-3-yl)phenyl)methanone]",-7 ± 7%,92%,130%,101%
"[2H]C([2H])([2H])OC1(c2ccc(C(=O)N3CC4CN(c5ccc(C(F)(F)F)cc5)CC4C3)cc2)COC1 (stereo not drawn) [Example 134, (4-(3-(methoxy-d3)oxetan-3-yl)phenyl)(5-(4-(trifluoromethyl)phenyl)hexahydropyrrolo[3,4-c]pyrrol-2(1H)-yl)methanone]",-38 ± 7%,3%,28%,43%
"O=C(c1ccc(C2(O)CCOCC2)cc1)N1CCC(c2ccc(C(F)(F)F)cc2)CC1 [Example 142, (4-(4-hydroxytetrahydro-2H-pyran-4-yl)phenyl)(4-(4-(trifluoromethyl)phenyl)piperidin-1-yl)methanone]",-26 ± 10%,0%,77%,16%
"COC1(c2ccc(C(=O)N3CCC(c4ccc(C(F)(F)F)cc4)CC3)cc2)CCNCC1 [Example 144, (4-(4-methoxypiperidin-4-yl)phenyl)(4-(4-(trifluoromethyl)phenyl)piperidin-1-yl)methanone]",-66 ± 10%,1%,16%,77%
"O=C(Nc1cccc(C2(O)COC2)c1)N1CC2CN(c3ccc(C(F)(F)F)cc3)CC2C1 (stereo not drawn) [Example 182, N-(3-(3-hydroxyoxetan-3-yl)phenyl)-5-(4-(trifluoromethyl)phenyl) hexahydropyrrolo[3,4-c]pyrrole-2(1H)-carboxamide]",-5 ± 11%,42%,37%,60%
"O=C(c1ccc(C2(O)COC2)cc1)N1CCCN(c2ccc(C(F)(F)F)cc2)CC1 [Example 184, (4-(3-hydroxyoxetan-3-yl)phenyl)(4-(4-(trifluoromethyl)phenyl)-1,4-diazepan-1-yl)methanone]",-7 ± 7%,19%,117%,250%
"COC1(c2ccc(C(=O)N3CC4CN(c5ccc(C(F)(F)F)nc5)CC4C3)cc2)COC1 (stereo not drawn) [Example 206, (4-(3-methoxyoxetan-3-yl)phenyl)(5-(6-(trifluoromethyl)pyridin-3-yl)hexahydropyrrolo[3,4-c]pyrrol-2(1H)-yl)methanone]",-18.6 ± 5.7%,0%,81%,127%
"O=C(c1ccc(C2(O)COC2)cc1)N1CC2CN(c3ccc(C(F)(F)F)nc3)CC2C1 (stereo not drawn) [Example 215, (4-(3-hydroxyoxetan-3-yl)phenyl)(5-(6-(trifluoromethyl)pyridin-3-yl)hexahydropyrrolo[3,4-c]pyrrol-2(1H)-yl)methanone]",-29 ± 5%,0%,90%,140%
"O=C(c1ccc(C2(O)COC2)cc1)N1CCN(c2ccc(C(F)(F)F)cn2)CC1 [Example 216, (4-(3-hydroxyoxetan-3-yl)phenyl)(4-(5-(trifluoromethyl)pyridin-2-yl)piperazin-1-yl)methanone]",-40 ± 6%,0%,64%,189%
"O=C(c1cccc(C2(O)COC2)c1)N1CCN(c2ccc(C(F)(F)F)cn2)CC1 [Example 220, (3-(3-hydroxyoxetan-3-yl)phenyl)(4-(5-(trifluoromethyl)pyridin-2-yl)piperazin-1-yl)methanone]",-16%,8%,31%,56%
